Earlier results in US6500801B1, “Treatment for Dutch elm disease” (The Governing Council of the University of Toronto, priority 1997, dated 2002).

System: strains of O. ulmi

| Compound | inhibition of growth of strains of O. ulmi |
| --- | --- |
| CC1=Cc2c(C(C)C)ccc(C)c2C(=O)C1=O [mansonone C] | inhibit the growth |
| CC1=CC2=C(C(=O)C1=O)C(C)CCC2C(C)C (stereo not drawn) [mansonone A] | inhibit the growth |
| CC1=Cc2c(c(C)cc3c2C(C)CO3)C(=O)C1=O (stereo not drawn) [mansonone D] | inhibit the growth |
| CC1=COC2=C(C)C(=O)C(=O)c3c(C)ccc1c32 [mansonone F] | inhibit the growth |
| CC1=C2OCC(C)c3ccc(C)c(c32)C(=O)C1=O (stereo not drawn) [mansonone E] | inhibit the growth |
| CC1=Cc2c(c(C)cc(O)c2C(C)C)C(=O)C1=O [mansonone G] | inhibit the growth |
